Here are results for one compound from patent publication US9732060B2, “Aminotriazine derivative and pharmaceutical composition comprising the same” (Shionogi & Co., Ltd., priority 2013, dated 2017).

For orientation: IC50 means the concentration that inhibits the measured activity by half. A high value points to weaker potency in that assay. In general, fraction unbound refers to free concentration divided by total concentration. Low readings indicate extensive binding, high ones weak binding. One may read the clearance as a measure of how efficiently the substance is removed, as volume per time. Lower therefore signals a low capacity for elimination. By AUC is commonly meant concentration integrated over time.

Each structure is given as a SMILES string. Where two headings read alike, the source gives them in different places.

One series has as its target human P2X3 receptor (Homo sapiens (Human), UniProt P56373). In words: Evaluation of human P2X3 receptor inhibitory activity (FLIPR Ca fluorescence, ATP-evoked). The series is classed as cell-based. The note with it: C6BU-1 cells stably expressing human P2X3 receptor. The method, then:
Stably expressing cell line (C6BU-1 cell transfected with human P2X3 receptor gene (GenBank accession number Y07683) was used. The cells were seeded in a 384-well PDL-coated microtiter plate at a concentration of 3000 cells/well and cultured in the medium (8.3% fetal bovine serum, 8.3% horse serum, and 1% antibiotic and antifungal in DMEM) for one day at 37° C. under 5% carbon dioxide atmosphere. The medium was replaced with 4 μM Fluo-3-AM solution (20 mM HEPES, 137 mM NaCl, 2.7 mM KCl, 0.9 mM MgCl2, 5.0 mM CaCl2, 5.6 mM D-glucose, 2.5 mM probenecid, 0.5% BSA, and 0.04% Pluronic P-127, pH 7.5) and incubated at 37° C. under 5% dioxide carbon atmosphere for one hour. The plate was washed with washing buffer (20 mM HEPES, 137 mM NaCl, 2.7 mM KCl, 0.9 mM MgCl2, 5.0 mM CaCl2, 5.6 mM D-glucose, 2.5 mM probenecid, pH 7.5), and each well was added with 20 μL of the washing buffer. The plate was placed in High-Throughput Screening System FLIPR 384 (Molecular Device Co.). Measurement of fluorescence intensity by […] was started, and 20 μL of DMSO solutions containing different concentrations of the test compound as prepared by dilution with dilution buffer (20 mM HEPES, 137 mM NaCl, 2.7 mM KCl, 0.9 mM MgCl2, 5.0 mM CaCl2, 5.6 mM D-glucose, 2.5 mM probenecid, 0.1% Pluronic F-127, pH 7.5) were dispensed to each well through the built-in automatic dispenser. Five minutes after, 150 nM ATP solution (25 μL) prepared by dilution with the dilution buffer was dispensed through the built-in automatic dispenser, and the measurement of fluorescence intensity was continued for 4 min. For each well, the specific maximum fluorescence intensity was calculated as the ratio of the maximum fluorescence intensity after addition of the ATP solution to the fluorescence intensity at the starting of the measurement. […] The specific maximum fluorescence intensify and IC50 were calculated using Spotfire (Science & Technology Systems. Inc.)

Series [1] in a line: Protein binding test (equilibrium dialysis, unbound fraction in serum). It counts as in vitro ADME. Conditions: 37° C. The method, then: The unbound fraction of the present compound in serum was measured using serum of various species.
The reactive conditions are as follows: Evaluation method, Equilibrium dialysis; Reaction time, 24 hours; Reaction temperature, 37° C.; Concentration of the present compound, 2 μg/mL
The test solution was added to each serum and the mixture was agitated to prepare the serum samples at the concentration mentioned above. Each serum sample was added into one side of the cell and phosphate buffered saline (PBS) was added into the other side to perform equilibrium dialysis at 37° C. for 24 hours. Then, the concentration of the compounds in the samples that were obtained from both sides was measured by LC/MS/MS.
The ratio of PBS concentration to serum concentration is expressed as unbound fraction (fu),
In general terms: In equilibrium dialysis only unbound substance equilibrates across the membrane.

Series [2] in a line: Pharmacokinetic test (BA, CLtot). It counts as in vivo. The note with it: rat, plasma, SD rats. As to the method:
• (1) Animals: SD rats were used • (2) Breeding conditions: SD rats were allowed to freely take solid food and sterilized tap water. • (3) Dose and grouping: orally or intravenously administered at a predetermined dose; grouping was as follows (Dose depends on the compound)
Oral administration: 1 mg/kg (n=2)
The total body clearance (CLtot) was calculated by dividing the dose by the AUC of the intravenous administration group.

Sequence of human P2X3 receptor (P56373 whole entry): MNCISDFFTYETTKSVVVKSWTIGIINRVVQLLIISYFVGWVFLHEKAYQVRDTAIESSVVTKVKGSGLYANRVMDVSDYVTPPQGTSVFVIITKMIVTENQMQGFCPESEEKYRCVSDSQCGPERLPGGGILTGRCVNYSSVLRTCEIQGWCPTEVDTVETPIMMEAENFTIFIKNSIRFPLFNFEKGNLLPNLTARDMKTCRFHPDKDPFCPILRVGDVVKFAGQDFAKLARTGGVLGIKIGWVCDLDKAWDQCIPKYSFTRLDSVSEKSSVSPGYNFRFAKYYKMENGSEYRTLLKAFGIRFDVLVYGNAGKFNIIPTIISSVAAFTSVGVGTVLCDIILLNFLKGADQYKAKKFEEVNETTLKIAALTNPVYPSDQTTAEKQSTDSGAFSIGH

Regarding `Cc1ccc(Cn2c(=O)n(C[C@H](C)C(=O)O)c(=O)[nH]/c2=N\c2ccc(Oc3ccc(F)cn3)cc2)cc1` [Compound I-040], the 50% inhibitory concentration (IC50) against human P2X3 receptor came out at 6 nM. For the same compound, the fraction unbound at 24 h, 2 μg/mL in series [1] stood at 0.035. The same compound yielded a clearance in series [2] (intravenous administration 0.5 mg/kg) of 28.6 mL/min/kg. The exposure (AUC) worked out at 291 ng·h/mL in series [2] (intravenous administration 0.5 mg/kg, read-out: AUC (iv)) and 410 ng·h/mL in series [2] (oral administration 1 mg/kg, read-out: AUC (po)).
